Test results published in the kinase profiling compilation of Christmann-Franck et al. (2016).

Columns and labels:
Assay in all cases: radiometric filter-binding kinase assay, Kinase HotSpot
Conditions in all cases: compound 0.5 µM; ATP 10 µM
TEC (human) = TEC (human) (UniProt P42680)
CDK5 CDK5R1 p25 (human) = CDK5 CDK5R1 p25 (human) (UniProt Q00535+Q15078)
YES1 (human) = YES1 (human) (UniProt P07947)
CSNK1E (human) = CSNK1E (human) (UniProt P49674)
ERBB4 (human) = ERBB4 (human) (UniProt Q15303)
Chain of ERBB4 (human) (Q15303 whole entry, looked up): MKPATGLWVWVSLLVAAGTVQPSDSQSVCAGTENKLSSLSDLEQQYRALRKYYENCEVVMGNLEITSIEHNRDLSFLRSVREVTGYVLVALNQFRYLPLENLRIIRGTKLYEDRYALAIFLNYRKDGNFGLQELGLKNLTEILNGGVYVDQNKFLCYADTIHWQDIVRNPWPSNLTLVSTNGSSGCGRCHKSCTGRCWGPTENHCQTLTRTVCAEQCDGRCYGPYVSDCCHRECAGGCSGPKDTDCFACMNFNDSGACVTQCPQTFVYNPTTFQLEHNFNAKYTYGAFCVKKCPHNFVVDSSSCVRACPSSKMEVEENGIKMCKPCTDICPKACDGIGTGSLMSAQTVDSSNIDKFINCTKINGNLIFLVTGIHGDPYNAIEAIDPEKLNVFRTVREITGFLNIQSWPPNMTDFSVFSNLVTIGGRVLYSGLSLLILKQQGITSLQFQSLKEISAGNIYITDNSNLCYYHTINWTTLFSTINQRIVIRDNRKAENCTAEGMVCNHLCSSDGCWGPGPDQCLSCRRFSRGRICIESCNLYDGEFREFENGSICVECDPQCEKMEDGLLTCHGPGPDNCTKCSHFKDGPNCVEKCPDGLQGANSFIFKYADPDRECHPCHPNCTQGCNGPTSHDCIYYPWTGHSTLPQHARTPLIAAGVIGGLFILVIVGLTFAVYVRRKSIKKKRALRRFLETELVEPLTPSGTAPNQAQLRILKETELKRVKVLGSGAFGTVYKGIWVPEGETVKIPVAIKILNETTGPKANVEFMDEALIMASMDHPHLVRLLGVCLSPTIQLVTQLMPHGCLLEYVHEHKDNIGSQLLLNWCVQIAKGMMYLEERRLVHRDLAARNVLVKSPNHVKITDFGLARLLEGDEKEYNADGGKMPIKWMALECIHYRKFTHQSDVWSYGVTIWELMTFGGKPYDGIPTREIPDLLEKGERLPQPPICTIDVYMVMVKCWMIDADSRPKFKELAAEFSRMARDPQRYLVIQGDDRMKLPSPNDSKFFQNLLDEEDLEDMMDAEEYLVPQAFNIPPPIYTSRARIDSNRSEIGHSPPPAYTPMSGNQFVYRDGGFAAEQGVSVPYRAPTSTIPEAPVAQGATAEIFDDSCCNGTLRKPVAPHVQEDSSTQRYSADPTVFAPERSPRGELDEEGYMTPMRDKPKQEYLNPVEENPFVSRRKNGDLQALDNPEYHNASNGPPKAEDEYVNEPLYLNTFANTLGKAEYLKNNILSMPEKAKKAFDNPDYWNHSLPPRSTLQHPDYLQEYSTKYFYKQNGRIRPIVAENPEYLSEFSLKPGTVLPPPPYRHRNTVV

RIPK2 (human) = RIPK2 (human) (UniProt O43353)
DYRK4 (human) = DYRK4 (human) (UniProt Q9NR20)
CDC42BPB (human) = CDC42BPB (human) (UniProt Q9Y5S2)
FGFR4 (human) = FGFR4 (human) (UniProt P22455)
Chain of FGFR4 (human) (P22455 whole entry, looked up): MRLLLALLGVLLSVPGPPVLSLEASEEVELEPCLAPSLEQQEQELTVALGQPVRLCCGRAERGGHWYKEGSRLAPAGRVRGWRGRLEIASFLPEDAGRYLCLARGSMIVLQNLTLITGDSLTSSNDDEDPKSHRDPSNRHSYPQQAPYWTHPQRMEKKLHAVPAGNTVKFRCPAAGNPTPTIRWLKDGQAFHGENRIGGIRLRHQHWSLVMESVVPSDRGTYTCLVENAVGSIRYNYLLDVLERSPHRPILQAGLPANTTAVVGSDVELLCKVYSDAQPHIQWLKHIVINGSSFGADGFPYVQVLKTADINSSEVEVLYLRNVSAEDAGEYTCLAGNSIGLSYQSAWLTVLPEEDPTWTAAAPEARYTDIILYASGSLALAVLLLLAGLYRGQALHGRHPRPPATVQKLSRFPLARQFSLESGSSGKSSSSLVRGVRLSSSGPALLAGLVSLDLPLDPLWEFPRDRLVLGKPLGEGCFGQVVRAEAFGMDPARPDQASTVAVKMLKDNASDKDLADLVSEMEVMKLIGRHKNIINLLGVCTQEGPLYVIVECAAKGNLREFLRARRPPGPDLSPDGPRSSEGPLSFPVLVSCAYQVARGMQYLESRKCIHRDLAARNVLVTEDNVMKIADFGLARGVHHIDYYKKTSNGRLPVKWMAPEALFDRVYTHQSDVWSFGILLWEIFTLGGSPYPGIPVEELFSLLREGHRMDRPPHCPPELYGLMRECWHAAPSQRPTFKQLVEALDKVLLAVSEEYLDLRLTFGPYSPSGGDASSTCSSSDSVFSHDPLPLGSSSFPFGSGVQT

MAP3K8 (human) = MAP3K8 (human) (UniProt P41279)
TGFBR1 (human) = TGFBR1 (human) (UniProt P36897)
Chain of TGFBR1 (human) (P36897 whole entry, looked up): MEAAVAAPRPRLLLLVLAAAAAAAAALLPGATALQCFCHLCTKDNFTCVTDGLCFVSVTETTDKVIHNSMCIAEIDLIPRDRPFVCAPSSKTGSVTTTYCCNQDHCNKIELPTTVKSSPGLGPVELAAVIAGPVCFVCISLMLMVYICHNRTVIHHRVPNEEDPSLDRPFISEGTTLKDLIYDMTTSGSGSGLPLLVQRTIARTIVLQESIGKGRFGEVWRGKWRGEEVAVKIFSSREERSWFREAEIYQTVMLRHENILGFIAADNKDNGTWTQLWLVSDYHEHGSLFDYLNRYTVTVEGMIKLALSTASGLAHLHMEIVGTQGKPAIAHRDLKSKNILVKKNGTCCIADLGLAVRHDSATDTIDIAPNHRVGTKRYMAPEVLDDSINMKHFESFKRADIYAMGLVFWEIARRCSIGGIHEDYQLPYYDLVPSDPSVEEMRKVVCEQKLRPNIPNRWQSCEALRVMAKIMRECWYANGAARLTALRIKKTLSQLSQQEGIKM

ADRBK1 (human) = ADRBK1 (human) (UniProt P25098)
RPS6KA6 KD1 KD2 (human) = RPS6KA6 KD1 KD2 (human) (UniProt Q9UK32)
DMPK (human) = DMPK (human) (UniProt Q09013)
NUAK1 (human) = NUAK1 (human) (UniProt O60285)
AURKC (human) = AURKC (human) (UniProt Q9UQB9)
Chain of AURKC (human) (Q9UQB9 whole entry, looked up): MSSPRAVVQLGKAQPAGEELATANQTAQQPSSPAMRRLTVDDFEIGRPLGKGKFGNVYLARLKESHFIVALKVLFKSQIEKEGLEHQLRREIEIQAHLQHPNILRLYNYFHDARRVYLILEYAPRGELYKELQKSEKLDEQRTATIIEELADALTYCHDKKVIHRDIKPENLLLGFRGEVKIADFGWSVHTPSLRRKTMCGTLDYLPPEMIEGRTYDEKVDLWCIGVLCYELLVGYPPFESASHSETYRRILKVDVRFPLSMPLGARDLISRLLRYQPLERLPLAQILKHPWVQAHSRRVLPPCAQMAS

SRPK1 (human) = SRPK1 (human) (UniProt Q96SB4)
PIM3 (human) = PIM3 (human) (UniProt Q86V86)
ROS1 (human) = ROS1 (human) (UniProt P08922)
FGFR1 (human) = FGFR1 (human) (UniProt P11362)
CLK4 (human) = CLK4 (human) (UniProt Q9HAZ1)
CSNK1A1 (human) = CSNK1A1 (human) (UniProt P48729)
MYLK (human) = MYLK (human) (UniProt Q15746)
RPS6KB2 (human) = RPS6KB2 (human) (UniProt Q9UBS0)
ULK1 (human) = ULK1 (human) (UniProt O75385)
CSNK1G3 (human) = CSNK1G3 (human) (UniProt Q9Y6M4)
EPHA1 (human) = EPHA1 (human) (UniProt P21709)
DAPK3 (human) = DAPK3 (human) (UniProt O43293)
Chain of DAPK3 (human) (O43293 whole entry, looked up): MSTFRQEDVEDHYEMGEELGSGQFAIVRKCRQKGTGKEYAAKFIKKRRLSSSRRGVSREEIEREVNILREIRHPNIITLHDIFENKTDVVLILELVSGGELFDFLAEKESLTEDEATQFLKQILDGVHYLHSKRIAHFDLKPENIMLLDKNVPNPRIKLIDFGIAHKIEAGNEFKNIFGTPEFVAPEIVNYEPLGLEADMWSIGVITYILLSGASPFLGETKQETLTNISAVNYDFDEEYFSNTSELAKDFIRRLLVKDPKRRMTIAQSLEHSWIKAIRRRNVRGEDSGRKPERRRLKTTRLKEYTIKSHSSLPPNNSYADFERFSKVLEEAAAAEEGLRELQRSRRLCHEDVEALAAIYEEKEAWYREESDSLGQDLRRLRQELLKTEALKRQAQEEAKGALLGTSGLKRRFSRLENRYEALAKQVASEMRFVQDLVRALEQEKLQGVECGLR

MKNK2 (human) = MKNK2 (human) (UniProt Q9HBH9)
RPS6KA5 KD2 (human) = RPS6KA5 KD2 (human) (UniProt O75582)
PTK2 (human) = PTK2 (human) (UniProt Q05397)
BRSK1 (human) = BRSK1 (human) (UniProt Q8TDC3)
ACVR1 (human) = ACVR1 (human) (UniProt Q04771)
Chain of ACVR1 (human) (Q04771 whole entry, looked up): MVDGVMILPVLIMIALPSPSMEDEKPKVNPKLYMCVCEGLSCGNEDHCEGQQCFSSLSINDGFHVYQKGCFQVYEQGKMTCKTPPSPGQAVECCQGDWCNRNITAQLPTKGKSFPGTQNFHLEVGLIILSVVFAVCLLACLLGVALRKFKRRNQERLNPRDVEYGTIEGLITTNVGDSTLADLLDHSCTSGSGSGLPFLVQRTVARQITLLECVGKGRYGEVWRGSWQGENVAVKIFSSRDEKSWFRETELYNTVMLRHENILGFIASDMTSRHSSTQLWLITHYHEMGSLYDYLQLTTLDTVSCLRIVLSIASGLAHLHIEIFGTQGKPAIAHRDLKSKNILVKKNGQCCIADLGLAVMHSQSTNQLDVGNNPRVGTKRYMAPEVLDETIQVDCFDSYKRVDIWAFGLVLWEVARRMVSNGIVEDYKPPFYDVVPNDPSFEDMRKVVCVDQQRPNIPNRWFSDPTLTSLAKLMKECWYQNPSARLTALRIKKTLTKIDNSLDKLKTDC

CDK2 CCNA2 (human) = CDK2 CCNA2 (human) (UniProt P24941+P20248)
CAMK2G (human) = CAMK2G (human) (UniProt Q13555)
GSK3A (human) = GSK3A (human) (UniProt P49840)
MAP3K3 (human) = MAP3K3 (human) (UniProt Q99759)
MYLK2 (human) = MYLK2 (human) (UniProt Q9H1R3)
PRKACA (human) = PRKACA (human) (UniProt P17612)
PAK3 (human) = PAK3 (human) (UniProt O75914)
Chain of PAK3 (human) (O75914 whole entry, looked up): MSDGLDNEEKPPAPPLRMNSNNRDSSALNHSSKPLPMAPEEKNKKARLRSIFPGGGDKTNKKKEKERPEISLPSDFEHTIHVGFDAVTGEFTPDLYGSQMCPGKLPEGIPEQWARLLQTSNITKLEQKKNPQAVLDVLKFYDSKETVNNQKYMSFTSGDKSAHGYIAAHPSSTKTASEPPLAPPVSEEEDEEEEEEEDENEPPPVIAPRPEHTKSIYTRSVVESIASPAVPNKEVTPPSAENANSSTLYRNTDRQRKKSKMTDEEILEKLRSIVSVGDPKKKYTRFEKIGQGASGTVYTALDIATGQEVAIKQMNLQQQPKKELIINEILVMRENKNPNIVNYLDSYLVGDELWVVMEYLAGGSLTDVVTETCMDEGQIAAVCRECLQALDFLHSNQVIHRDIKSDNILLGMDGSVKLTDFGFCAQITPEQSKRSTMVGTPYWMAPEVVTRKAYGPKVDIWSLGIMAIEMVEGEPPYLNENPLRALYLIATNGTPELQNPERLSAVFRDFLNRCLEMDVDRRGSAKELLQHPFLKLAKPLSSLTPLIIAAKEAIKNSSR

AURKA (human) = AURKA (human) (UniProt O14965)
RAF1 (human) = RAF1 (human) (UniProt P04049)

`CN(C)S(=O)(=O)c1ccc2c(c1)/C(=C/c1cc3c([nH]1)CCCC3)C(=O)N2` gave a residual activity (TEC (human)) of 116%, a residual activity (CDK5 CDK5R1 p25 (human)) of 72.9% and a residual activity (YES1 (human)) of 13.5%. For the same molecule, the residual activity (CSNK1E (human)) was 104%, the residual activity (ERBB4 (human)) was 106% and the residual activity (RIPK2 (human)) was 88.9%. It also gave a residual activity (DYRK4 (human)) of 98.2%, a residual activity (CDC42BPB (human)) of 101% and a residual activity (FGFR4 (human)) of 92.9%. The residual activity (MAP3K8 (human)) was 94.6%, the residual activity (TGFBR1 (human)) was 95.9% and the residual activity (ADRBK1 (human)) was 95%. The residual activity (RPS6KA6 KD1 KD2 (human)) was 67.4%, the residual activity (DMPK (human)) was 102% and the residual activity (NUAK1 (human)) was 10.9%. For the same molecule, the residual activity (AURKC (human)) was 33.8%, the residual activity (SRPK1 (human)) was 63.8% and the residual activity (PIM3 (human)) was 117%. It also gave a residual activity (ROS1 (human)) of 83.3%, a residual activity (FGFR1 (human)) of 71.4% and a residual activity (CLK4 (human)) of 50.7%. The residual activity (CSNK1A1 (human)) was 91.7%, the residual activity (MYLK (human)) was 97.2% and the residual activity (RPS6KB2 (human)) was 92.6%. It also gave a residual activity (ULK1 (human)) of 6.13%, a residual activity (CSNK1G3 (human)) of 101% and a residual activity (EPHA1 (human)) of 94.5%. It also gave a residual activity (DAPK3 (human)) of 94.4%, a residual activity (MKNK2 (human)) of 84.1% and a residual activity (RPS6KA5 KD2 (human)) of 106%. For the same molecule, the residual activity (PTK2 (human)) was 33.1%, the residual activity (BRSK1 (human)) was 32.4% and the residual activity (ACVR1 (human)) was 98.6%. The residual activity (CDK2 CCNA2 (human)) was 90.6%, the residual activity (CAMK2G (human)) was 98.9% and the residual activity (GSK3A (human)) was 99.4%. For the same molecule, the residual activity (MAP3K3 (human)) was 48.7%, the residual activity (MYLK2 (human)) was 97.9% and the residual activity (PRKACA (human)) was 106%. It also gave a residual activity (PAK3 (human)) of 97.6%, a residual activity (AURKA (human)) of 16.1% and a residual activity (RAF1 (human)) of 97.7%.

For `NC(=O)c1cccc(-c2cc(Nc3ccc(OC(F)(F)F)cc3)ncn2)c1`, the residual activity (TEC (human)) was 139%, the residual activity (CDK5 CDK5R1 p25 (human)) was 80.1% and the residual activity (YES1 (human)) was 87.4%. It also gave a residual activity (CSNK1E (human)) of 103%, a residual activity (ERBB4 (human)) of 85.3% and a residual activity (RIPK2 (human)) of 89.3%. It also gave a residual activity (DYRK4 (human)) of 96.3%, a residual activity (CDC42BPB (human)) of 93.2% and a residual activity (FGFR4 (human)) of 92.9%. The residual activity (MAP3K8 (human)) was 96.8%, the residual activity (TGFBR1 (human)) was 103% and the residual activity (ADRBK1 (human)) was 96.1%. The residual activity (RPS6KA6 KD1 KD2 (human)) was 94.2%, the residual activity (DMPK (human)) was 96.1% and the residual activity (NUAK1 (human)) was 96.7%. For the same molecule, the residual activity (AURKC (human)) was 101%, the residual activity (SRPK1 (human)) was 98% and the residual activity (PIM3 (human)) was 88.6%. The residual activity (FGFR1 (human)) was 96.9%, the residual activity (CLK4 (human)) was 97.8% and the residual activity (CSNK1A1 (human)) was 103%. It also gave a residual activity (MYLK (human)) of 91.9%, a residual activity (RPS6KB2 (human)) of 102% and a residual activity (ULK1 (human)) of 97.5%. It also gave a residual activity (CSNK1G3 (human)) of 93.4%, a residual activity (EPHA1 (human)) of 90.1% and a residual activity (DAPK3 (human)) of 99.8%. For the same molecule, the residual activity (MKNK2 (human)) was 95.4%, the residual activity (RPS6KA5 KD2 (human)) was 104% and the residual activity (PTK2 (human)) was 100%. For the same molecule, the residual activity (BRSK1 (human)) was 98.4%, the residual activity (ACVR1 (human)) was 99.4% and the residual activity (CDK2 CCNA2 (human)) was 96.5%. The residual activity (CAMK2G (human)) was 102%, the residual activity (GSK3A (human)) was 93.9% and the residual activity (MAP3K3 (human)) was 104%. The residual activity (MYLK2 (human)) was 97.1%, the residual activity (PRKACA (human)) was 94.2% and the residual activity (PAK3 (human)) was 100%. For the same molecule, the residual activity (AURKA (human)) was 107% and the residual activity (RAF1 (human)) was 105%.

In the case of `O=C1c2ccccc2-c2nc3nnnn3nc21`, the residual activity (TEC (human)) is reported as 2.44%, the residual activity (CDK5 CDK5R1 p25 (human)) is reported as 46.4% and the residual activity (YES1 (human)) is reported as 89.1%. For the same molecule, the residual activity (CSNK1E (human)) was 80.6%, the residual activity (ERBB4 (human)) was 50.2% and the residual activity (RIPK2 (human)) was 101%. It also gave a residual activity (DYRK4 (human)) of 88.5%, a residual activity (CDC42BPB (human)) of 82.6% and a residual activity (FGFR4 (human)) of 58%. The residual activity (MAP3K8 (human)) was 75.9%, the residual activity (TGFBR1 (human)) was 107% and the residual activity (ADRBK1 (human)) was 106%. For the same molecule, the residual activity (RPS6KA6 KD1 KD2 (human)) was 62.3%, the residual activity (DMPK (human)) was 84.8% and the residual activity (NUAK1 (human)) was 89.8%. For the same molecule, the residual activity (AURKC (human)) was 95.4%, the residual activity (SRPK1 (human)) was 109% and the residual activity (PIM3 (human)) was 93.3%. It also gave a residual activity (ROS1 (human)) of 91.1%, a residual activity (FGFR1 (human)) of 24.2% and a residual activity (CLK4 (human)) of 78.3%. For the same molecule, the residual activity (CSNK1A1 (human)) was 85.8%, the residual activity (MYLK (human)) was 94.1% and the residual activity (RPS6KB2 (human)) was 86.3%. It also gave a residual activity (ULK1 (human)) of 107%, a residual activity (CSNK1G3 (human)) of 80.3% and a residual activity (EPHA1 (human)) of 73.1%. It also gave a residual activity (DAPK3 (human)) of 96.2%, a residual activity (MKNK2 (human)) of 78.3% and a residual activity (RPS6KA5 KD2 (human)) of 68.7%. For the same molecule, the residual activity (BRSK1 (human)) was 84.8%, the residual activity (ACVR1 (human)) was 93.1% and the residual activity (CDK2 CCNA2 (human)) was 70.3%. It also gave a residual activity (CAMK2G (human)) of 91.1%, a residual activity (GSK3A (human)) of 88.7% and a residual activity (MAP3K3 (human)) of 134%. The residual activity (MYLK2 (human)) was 88.1%, the residual activity (PRKACA (human)) was 76.6% and the residual activity (PAK3 (human)) was 97.1%. For the same molecule, the residual activity (AURKA (human)) was 71.4% and the residual activity (RAF1 (human)) was 76.1%.

`COc1ccc2c(c1)/C(=C/c1cnc[nH]1)C(O)=N2` gave a residual activity (TEC (human)) of 91.6%, a residual activity (CDK5 CDK5R1 p25 (human)) of 4.52% and a residual activity (YES1 (human)) of 82.1%. It also gave a residual activity (CSNK1E (human)) of 80%, a residual activity (ERBB4 (human)) of 106% and a residual activity (RIPK2 (human)) of 90%. For the same molecule, the residual activity (DYRK4 (human)) was 98.5%, the residual activity (CDC42BPB (human)) was 104% and the residual activity (FGFR4 (human)) was 85.8%. It also gave a residual activity (MAP3K8 (human)) of 91.1%, a residual activity (TGFBR1 (human)) of 98.1% and a residual activity (ADRBK1 (human)) of 107%. For the same molecule, the residual activity (RPS6KA6 KD1 KD2 (human)) was 48.8%, the residual activity (DMPK (human)) was 104% and the residual activity (NUAK1 (human)) was 8.87%. The residual activity (AURKC (human)) was 67.8%, the residual activity (SRPK1 (human)) was 98% and the residual activity (PIM3 (human)) was 99%. For the same molecule, the residual activity (ROS1 (human)) was 91.1%, the residual activity (FGFR1 (human)) was 73.2% and the residual activity (CLK4 (human)) was 72.6%. It also gave a residual activity (CSNK1A1 (human)) of 86.4%, a residual activity (MYLK (human)) of 80.9% and a residual activity (RPS6KB2 (human)) of 98.7%. It also gave a residual activity (ULK1 (human)) of 53.4%, a residual activity (CSNK1G3 (human)) of 103% and a residual activity (EPHA1 (human)) of 97.3%. It also gave a residual activity (DAPK3 (human)) of 101%, a residual activity (MKNK2 (human)) of 84.9% and a residual activity (RPS6KA5 KD2 (human)) of 89.2%. The residual activity (PTK2 (human)) was 87.9%, the residual activity (BRSK1 (human)) was 47.1% and the residual activity (ACVR1 (human)) was 105%. For the same molecule, the residual activity (CAMK2G (human)) was 94.6%, the residual activity (GSK3A (human)) was 26.2% and the residual activity (MAP3K3 (human)) was 84.2%. For the same molecule, the residual activity (MYLK2 (human)) was 21%, the residual activity (PRKACA (human)) was 99.9% and the residual activity (PAK3 (human)) was 99.2%. It also gave a residual activity (AURKA (human)) of 69% and a residual activity (RAF1 (human)) of 98.3%.
